# Target: TDP-43 1-260 (Homo sapiens, UniProt Q13148)
# Assay: TDP-43 alpha-screen assay with bt-TAR32
# Format: binding
# Details: for IC50: bt-TAR32 0.125 nM, 3 h at room temperature, read-out: Activity (μM) in the TDP-43-DNA alpha-screen assay
# Method: Alpha-screen assay. […] Briefly, assays contained TDP-43 1-260 (15 ng/mL, 0.27 nM), 10 mg/mL of both streptavidin donor beads and anti-GST acceptor beads with various concentrations of bt-TAR32 (˜18 to +14 in the HIV1 LTR) and test compound in a final volume of 20 mL of 25 mM Tris, 0.1% CHAPS, pH 7.4 in white, opaque low volume 384-well plates. After 3 h incubation at room temperature, the AlphaScreen signal was measured using a Synergy 2 plate reader (Biotek, Winooski, VT). […] Nonspecific binding was determined in the presence of 10 mM bt-TDP43 and was less than 10% of total binding. IC50 values were obtained from nonlinear regression fits of the data to a one-site binding model using Graph Pad Prism, version 5.0 (GraphPad Software, San Diego, CA). Comparison of competitive inhibition and mixed type inhibition models were evaluated using the F-test on global fits of the data also in Graph Pad Prism, version 5.0.
# Sequence of TDP-43 1-260 (Q13148 1-260): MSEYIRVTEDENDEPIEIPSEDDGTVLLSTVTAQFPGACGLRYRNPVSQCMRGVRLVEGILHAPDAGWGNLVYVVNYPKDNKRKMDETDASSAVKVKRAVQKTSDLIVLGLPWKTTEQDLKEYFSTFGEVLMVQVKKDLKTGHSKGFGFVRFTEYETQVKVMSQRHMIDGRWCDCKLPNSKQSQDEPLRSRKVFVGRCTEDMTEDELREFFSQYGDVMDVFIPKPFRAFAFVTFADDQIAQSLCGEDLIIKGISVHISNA
Compound,IC50 [µM],also measured
6-(4-(2-(pyrrolidin-1-yl)ethoxy)phenyl)-N-(piperidin-4-yl)-1H-indazol-3-amine [Example 95],2.4,
"COc1ccc(-c2cc(NCCCN(C)CCCN)cc(-c3ccc(N4CCNCC4)cc3)n2)cc1 [Example 2, N-{3-[(3-aminopropyl)(methyl)amino]propyl}-2-(4-methoxyphenyl)-6-[4-(piperazin-1-yl)phenyl]pyridin-4-amine]",0.03,
COc1ccc(-c2cc(NC3CCN(C4CCC(N)CC4)CC3)cc(-c3ccc(N4CCNCC4)cc3)n2)cc1 (stereo not shown) [Example 3],0.03,"increase in potency versus Compound I (average) (same alpha-screen assay using bt-TAR32, side-by-side, three independent assays, average): 14 X; increase in potency versus Compound I (same alpha-screen assay using bt-TAR32, side-by-side, three independent assays, range): 11-18 X"
COc1ccc(-c2cc(NCCCNC3CC(N)C3)cc(-c3ccc(N4CCNCC4)cc3)n2)cc1 (stereo not shown) [Example 6],0.04,
"COc1ccc(-c2cc(NCCCN(C)CCCN)cc(-c3cccc(N4CCNCC4)c3)n2)cc1 [Example 7, N-{3-[(3-aminopropyl)(methyl)amino]propyl}-2-(4-methoxyphenyl)-6-[3-(piperazin-1-yl)phenyl]pyridin-4-amine]",0.05,
"CN(CCCN)CCCNc1cc(C#CC2CCNCC2)nc(-c2ccc(N3CCNCC3)cc2)c1 [Example 11, N-{3-[(3-aminopropyl)(methyl)amino]propyl}-2-[4-(piperazin-1-yl)phenyl]-6-[2-(piperidin-4-yl)ethynyl]pyridin-4-amine]",0.06,
"COc1ccc(-c2cc(NCCCN(C)CCCN)cc(-c3cnn(C4CCN(C)CC4)c3)n2)cc1 [Example 13, N-{3-[(3-aminopropyl)(methyl)amino]propyl}-2-(4-methoxyphenyl)-6-[1-(1-methylpiperidin-4-yl)-1H-pyrazol-4-yl]pyridin-4-amine]",0.065,
COc1ccc(-c2cc(NCCCN3CCC(CN)CC3)cc(-c3ccc(N4CCNCC4)cc3)n2)cc1 [Example 18],0.07,
CNc1ccc(-c2cc(NCCCN(C)CCCN)cc(-c3ccc(OC)cc3)n2)cc1 [Example 19],0.08,
COc1ccc(-c2cc(NCC3CCN(C4CCNCC4)C3)cc(-c3ccc(N4CCN(C)CC4)cc3)n2)cc1 (stereo not shown) [Example 22],0.08,
COc1ccc(-c2cc(NCCCN(C)CCCN)cc(-c3ccc(CN4CCCC4)cc3)n2)cc1 [Example 24],0.09,
COc1ccc(-c2cc(NCC3CCN(CC4CCNC4)CC3)cc(-c3ccc(N4CCN(C)CC4)cc3)n2)cc1 (stereo not shown) [Example 25],0.09,
COc1ccc(-c2cc(NCCCN3CCC(CN)C3)cc(-c3ccc(N4CCNCC4)cc3)n2)cc1 (stereo not shown) [Example 26],0.1,
CN(CCCN)CCCNc1cc(-c2ccc(N3CCNCC3)cc2)nc(-c2ccc3c(c2)CCNC3)c1 [Example 28],0.11,
COc1ccc(-c2cc(NC3CCN(CC4CCNC4)CC3)cc(-c3ccc(N4CCNCC4)cc3)n2)cc1 (stereo not shown) [Example 30],0.12,
"COc1ccc(-c2cc(NCCCN(C)CCCN)cc(OCCN3CCCC3)n2)cc1 [Example 37, N-{3-[(3-aminopropyl)(methyl)amino]propyl}-2-(4-methoxyphenyl)-6-[2-(pyrrolidin-1-yl)ethoxy]pyridin-4-amine]",0.16,
COc1ccc(-c2cc(NCCCN(C)C)cc(-c3ccc(N4CCN(C)CC4)cc3)n2)cc1 [Example 40],0.21,
"COc1ccc(-c2cc(N(C)CCCN(C)C)cc(-c3ccc(N4CCN(C)CC4)cc3)n2)cc1 [Example 42, N-(3-(dimethylamino)propyl)-2-(4-methoxyphenyl)-N-methyl-6-(4-(4-methylpiperazin-1-yl)phenyl)pyridin-4-amine]",0.46,
CN(C)CCCNc1cc(-c2ccc(N3CCNCC3)cc2)nc(-c2ccc(N3CCCC3)nc2)c1 [Example 44],7.95,
COc1ccc(-c2cc(NCCCN3CCCCC3)cc(-c3cc(OC)cc(OC)c3)n2)cc1 [Example 46],6.93,
CCOC(=O)N1CCC(Nc2cc(-c3ccc(OC)cc3)nc(-c3ccc(N4CCNCC4)cc3)c2)CC1 [Example 50],9.49,
COc1cccc(-c2cc(NCCCN(C)CCCN)cc(-c3ccc(N4CCNCC4)cc3)n2)c1 [Example 51],0.64,
"COc1ccc(-c2cc(NCCCN(C)CCCN)cc(-c3cnc(N4CCOCC4)s3)n2)cc1 [Example 52, N^1-(3-aminopropyl)-N^3-(2-(4-methoxyphenyl)-6-(2-morpholinothiazol-5-yl)pyridin-4-yl)-N^1-methylpropane-1,3-diamine]",5.58,
COc1ccc(-c2cc(NC3(CCN)CC3)cc(-c3ccc(N4CCNCC4)cc3)n2)cc1 [Example 54],3.56,
COc1ccc(-c2cc(NCC3CCNC3)cc(-c3ccc(N4CCN(C)CC4)cc3)n2)cc1 (stereo not shown) [Example 55],3.56,
COc1ccc(-c2cc(NCC3CN(C)CCO3)cc(-c3ccc(N4CCN(C)CC4)cc3)n2)cc1 (stereo not shown) [Example 56],3.24,
COc1ccc(-c2cc(NCC3CCCN3)cc(-c3ccc(N4CCC(C)CC4)cc3)n2)cc1 (stereo not shown) [Example 57],2.85,
COc1ccc(-c2cc(NC3CC4CCC(C3)N4C)cc(-c3ccc(N4CCN(C)CC4)cc3)n2)cc1 (stereo not shown) [Example 58],2.85,
COc1ccc(-c2cc(NCCCN(C)C)cc(-c3ccc(N4CCOCC4)cc3)n2)cc1 [Example 59],2.04,

# The remaining compounds from weak to strong by IC50, led by results:
IC50 [µM],Compound,also measured
11,COc1ccc(-c2cc(NC3CCNCC3(F)F)cc(-c3ccc(N4CCN(C)CC4)cc3)n2)cc1 (stereo not shown) [Example 60],
4.64,COc1ccc(-c2cc(NCCCN(C)CCCN)cc(-c3c(C)noc3C)n2)cc1 [Example 47],
4.17,CNS(=O)(=O)c1ccc(-c2cc(NCCCN(C)CCCN)cc(-c3ccc(OC)cc3)n2)cc1 [Example 53],
3.77,COc1ccc(-c2cc(NCCCc3cnc[nH]3)cc(-c3ccc(N4CCN(C)CC4)cc3)n2)cc1 [Example 48],
1.87,COc1ccc(-c2cc(NCCCN3CCCCC3)cc(C3=CCNCC3)n2)cc1 [Example 61],
1.07,CN1CCN(c2cncc(-c3cc(NCCCN)cc(-c4ccc(N5CCNCC5)cc4)n3)c2)CC1 [Example 45],
0.46,COc1ccc(-c2cc(NCCCN)cc(-n3cc4c(n3)CNC4)n2)cc1 [Example 43],
0.33,COc1ccc(-c2cc(N(C)C3CCNCC3)cc(-c3ccc(N4CCNCC4)cc3)n2)cc1 [Example 41],
0.19,COc1ccc(-c2cc(NC3CCNCC3)cc(-c3ccc(N4CCNCC4)cc3)n2)cc1 [Example 39],
0.17,COc1ccc(-c2cc(NCCCN(C)CCCN)cc(-c3ccc(N4CCN(C(=O)OC(C)(C)C)CC4)cc3)n2)cc1 [Example 38],
0.15,"COc1ccc(-c2cc(NCCCN(C)CCCN)cc(-c3ccc(OCCCN(C)C)nc3)n2)cc1 [Example 35, N-{3-[(3-aminopropyl)(methyl)amino]propyl}-6′-[3-(dimethylamino)propoxy]-6-(4-methoxyphenyl)-[2,3′-bipyridin]-4-amine]",
0.15,COc1ccc(-c2cc(NC3CCN(C4CCN(C)CC4)CC3)cc(-c3ccc(N4CCNCC4)cc3)n2)cc1 [Example 36],
0.14,COc1ccc(-c2cc(NCC3CCN(CC4CNC4)C3)cc(-c3ccc(N4CCN(C)CC4)cc3)n2)cc1 (stereo not shown) [Example 34],
0.13,COc1ccc(-c2cc(NCCCN(C)CCCN)cc(-c3ccc(N4CCN(C)CC4)cc3)n2)cc1 [Example 32],
0.13,COc1ccc(-c2cc(NCCCN(C)CCCN)cc(-c3ccc(-c4ccncc4)cc3)n2)cc1 [Example 33],
0.12,"COc1ccc(-c2cc(NCCCN)cc(-c3ccc(N4CCNCC4)cc3)n2)cc1 [Example 31, N^1-(2-(4-methoxyphenyl)-6-(4-(piperazin-1-yl)phenyl)pyridin-4-yl)propane-1,3-diamine]",
0.11,"COc1ccc(-c2cc(NC3CCN(C4CCN(C)CC4)CC3)cc(-c3ccc(N4CCNCC4)cc3)n2)cc1 [Example 27, N-(2-(4-methoxyphenyl)-6-(4-(piperazin-1-yl)phenyl)pyridin-4-yl)-1′-methyl-[1,4′-bipiperidin]-4-amine]",
0.11,COc1ccc(-c2cc(NCC3CCN(CC4CNC4)CC3)cc(-c3ccc(N4CCN(C)CC4)cc3)n2)cc1 [Example 29],
0.08,COc1ccc(-c2cc(NCCCN(C)CCCN)cc(-c3ccc(CN4CCNCC4)cc3)n2)cc1 [Example 20],
0.08,COc1ccc(-c2cc(NCC3CCN(CC4CCNC4)C3)cc(-c3ccc(N4CCN(C)CC4)cc3)n2)cc1 (stereo not shown) [Example 21],
0.08,COc1ccc(-c2cc(NCCCN(C)CCCN)cc(-c3ccc(N4CCN(C)CC4)cc3)n2)cc1 [Example 23],
0.07,COc1ccc(-c2cc(NCCCN(C)CCCN)cc(-c3ccc(N4CCN(CC5CNC5)CC4)cc3)n2)cc1 [Example 14],
0.07,CN(CCCN)CCCNc1cc(-c2ccc(CN3CCNCC3)cc2)nc(-c2ccc(N3CCNCC3)cc2)c1 [Example 16],
0.06,COc1ccc(-c2cc(NCCCN(C)CCCN)cc(-c3ccc(N4CCN(CC5CC5)CC4)cc3)n2)cc1 [Example 10],
0.06,"COc1ccc(-c2cc(NC3CCN(CC4CNC4)CC3)cc(-c3ccc(N4CCN(C)CC4)cc3)n2)cc1 [Example 12, N-(1-(azetidin-3-ylmethyl)piperidin-4-yl)-2-(4-methoxyphenyl)-6-(4-(4-methylpiperazin-1-yl)phenyl)pyridin-4-amine]",
0.05,CN(CCCN)CCCNc1cc(-c2ccc(C3CCNCC3)cc2)nc(-c2ccc(N3CCNCC3)cc2)c1 [Example 8],
0.05,"COc1ccc(-c2cc(NC3CCNCC3)cc(-c3ccc(N4CCN(C)CC4)cc3)n2)cc1 [Example 9, 2-(4-methoxyphenyl)-6-(4-(4-methylpiperazin-1-yl)phenyl)-N-(piperidin-4-yl)pyridin-4-amine]",
0.04,CN(CCCN)CCCNc1cc(-c2ccc(N3CCNCC3)cc2)nc(-c2ccc(N3CCNCC3)nc2)c1 [Example 4],
0.04,"COc1ccc(-c2cc(NC3CCN(CCCN)CC3)cc(-c3ccc(N4CCN(C)CC4)cc3)n2)cc1 [Example 5, N-(1-(3-aminopropyl)piperidin-4-yl)-2-(4-methoxyphenyl)-6-(4-(4-methylpiperazin-1-yl)phenyl)pyridin-4-amine]",
0.02,CN(CCCN)CCCNc1cc(-c2ccc(N3CCNCC3)cc2)nc(-c2ccc(N3CCNCC3)cc2)c1 [Example 1],

# — patent publication US20240148722A1, “SMALL MOLECULES THAT BIND TO TDP-43 FOR THE TREATMENT OF ALS AND RELATED DISORDERS” (Biohaven Therapeutics Ltd., priority 2021, published 2024)
